Values quoted from earlier work, collected in patent publication US5349105A, “Alkyl, alkoxy and thioalkoxy substituted diphenyl acetylenes having retinoid like activity” (Allergan, Inc., priority 1993, dated 1994).

Tested on: ornithine decarboxylase (ODC)
Conditions: literature background

Structure (SMILES)	induction of ODC activity (in words) (TPA as inducer)	inhibition of induction of ODC activity by TPA (in words) (retinoic acid)
CCCCCCCCCCCCCC(=O)O[C@@H]1[C@@H](C)[C@@]2(O)[C@@H](C=C(CO)C[C@]3(O)C(=O)C(C)=C[C@@H]23)[C@@H]2C(C)(C)[C@]12OC(C)=O [12-0-tetradecanoyl-phorbol-13-acetate]	induces ODC activity	–
CC1=C(/C=C/C(C)=C/C=C/C(C)=C/C(=O)O)C(C)(C)CCC1 [Retinoic acid]	–	inhibits this induction of ODC activity by TPA
